# Measured values published in ChEMBL document CHEMBL1799982, “Synthesis, protein kinase inhibitory potencies, and in vitro antiproliferative activities of meridianin derivatives” (J Med Chem, 2011).
# pIC50: −log10 of the molar value.
# What was measured:
# [1] = target: Dual specificity tyrosine-phosphorylation-regulated kinase 1A (Rattus norvegicus, UniProt Q63470); assay: Inhibition of rat recombinant GST-tagged DYRK1A using myelin protein as substrate and [gamma32]-ATP after 30 mins by scintillation counting
# [2] = target: Glycogen synthase kinase-3 (Sus scrofa, UniProt B2LUN4+I6LNT8); assay: Inhibition of pig brain GSK-3alpha/beta using YRRAAVPPSPSLSRHSSPHQSpEDEEE as substrate
# [3] = target: Dual specificity protein kinase CLK1 (Homo sapiens, UniProt P49759)
# Sequence of Dual specificity protein kinase CLK1 (P49759 whole entry): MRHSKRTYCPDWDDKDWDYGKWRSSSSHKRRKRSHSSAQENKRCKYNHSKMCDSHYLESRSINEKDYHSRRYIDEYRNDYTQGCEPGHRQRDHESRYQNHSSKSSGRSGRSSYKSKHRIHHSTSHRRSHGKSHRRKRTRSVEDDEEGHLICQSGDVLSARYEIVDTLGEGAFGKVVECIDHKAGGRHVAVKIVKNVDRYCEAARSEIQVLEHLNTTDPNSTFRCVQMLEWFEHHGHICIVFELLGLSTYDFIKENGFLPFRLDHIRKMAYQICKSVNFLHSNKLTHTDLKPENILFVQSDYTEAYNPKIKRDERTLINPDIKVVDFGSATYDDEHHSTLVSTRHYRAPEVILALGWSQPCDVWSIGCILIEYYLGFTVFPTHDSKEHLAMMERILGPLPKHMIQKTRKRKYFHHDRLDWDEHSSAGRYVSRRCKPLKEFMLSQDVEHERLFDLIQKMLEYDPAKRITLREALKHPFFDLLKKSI
# HT-22 = assay: Antiproliferative activity against mouse HT22 cells by MTS reduction assay
# PA-1 = assay: Antiproliferative activity against human PA1 cells after 48 hrs by resazurin reduction test; assay type: functional, cell-based; details: PA-1, 48 h
# PC-3 = assay: Antiproliferative activity against human PC3 cells after 48 hrs by resazurin reduction test; details: PC-3, 48 h
# [4] = Antiproliferative activity against human primary fibroblasts after 48 hrs by resazurin reduction test; assay type: cell-based; details: Fibroblast
# [5] = target: Cyclin-dependent kinase 5/CDK5 activator 1 (Homo sapiens, UniProt Q00535); assay: Inhibition of human recombinant CDK5/p25 using Histone H1 and [gamma32]-ATP after 30 mins by scintillation counting; assay type: protein-complex assay
# Sequence of Cyclin-dependent kinase 5/CDK5 activator 1 (Q00535 whole entry): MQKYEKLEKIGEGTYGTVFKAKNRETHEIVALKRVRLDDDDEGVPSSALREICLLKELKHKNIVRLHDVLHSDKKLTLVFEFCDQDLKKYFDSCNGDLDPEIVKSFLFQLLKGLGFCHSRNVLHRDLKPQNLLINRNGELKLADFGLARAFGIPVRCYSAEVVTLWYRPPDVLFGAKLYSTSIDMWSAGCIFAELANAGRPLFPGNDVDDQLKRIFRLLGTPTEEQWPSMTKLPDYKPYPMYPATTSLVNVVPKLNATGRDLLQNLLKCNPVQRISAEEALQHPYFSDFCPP
# Sequence of Cyclin-dependent kinase 5/CDK5 activator 1 (Q15078 whole entry, further chain): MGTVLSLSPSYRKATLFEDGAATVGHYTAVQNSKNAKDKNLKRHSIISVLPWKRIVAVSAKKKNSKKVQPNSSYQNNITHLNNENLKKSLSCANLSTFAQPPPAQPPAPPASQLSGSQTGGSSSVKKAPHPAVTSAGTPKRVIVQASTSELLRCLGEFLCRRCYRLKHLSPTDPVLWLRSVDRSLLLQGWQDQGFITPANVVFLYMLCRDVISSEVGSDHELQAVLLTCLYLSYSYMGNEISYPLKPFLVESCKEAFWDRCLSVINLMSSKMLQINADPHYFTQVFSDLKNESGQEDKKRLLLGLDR
# [6] = Inhibition of pig brain CK1 delta/epsilon using RRKHAAIGpSAYSITA as substrate; design: species or system Sus scrofa
# IMR-32 = assay: Antiproliferative activity against human IMR32 cells by MTS reduction assay
# MCF7 = assay: Antiproliferative activity against human MCF7 cells after 48 hrs by resazurin reduction test; details: MCF7, 48 h
# DU-145 = assay: Antiproliferative activity against human DU145 cells after 48 hrs by resazurin reduction test; assay type: functional, cell-based; details: DU-145, 48 h
# SH-SY5Y = assay: Antiproliferative activity against human SH-SY5Y cells by MTS reduction assay
SMILES,pIC50 [1],IC50 [2] [µM],pIC50 [3],pIC50 (HT-22),pIC50 (PA-1),pIC50 (PC-3),pIC50 [4],pIC50 [5],pIC50 [6],pIC50 (IMR-32),pIC50 (MCF7),pIC50 (DU-145),pIC50 (SH-SY5Y)
Nc1ncc(I)c(-c2c[nH]c3cccc([N+](=O)[O-])c23)n1,5.04,> 10,5.15,< 5.00,5.48,5.15,5.30,< 5.00,< 5.00,< 5.00,< 5.00,5.27,< 5.00
COc1cccc(-c2cnc(N)nc2-c2c[nH]c3c(Br)cccc23)c1,6.07,> 10,6.06,< 5.00,4.89,4.54,4.51,< 5.00,5.38,< 5.00,< 5.00,4.48,< 5.00
Nc1ncc(I)c(-c2c[nH]c3ccc([N+](=O)[O-])cc23)n1,6.60,0.66,6.92,4.70,5.08,4.59,4.72,5.80,6.38,5.00,< 4.60,4.88,< 4.60
Nc1nccc(-c2c[nH]c3cc(Br)ccc23)n1 [MERIDIANIN D],6.89,7.2,6.92,< 4.60,–,–,–,5.92,5.42,< 4.60,< 4.60,–,< 4.60
Nc1nccc(-c2c[nH]c3cccc(Br)c23)n1,6.07,> 10,5.85,< 4.60,–,–,–,5.00,5.28,< 4.60,< 4.60,–,< 4.60
Nc1ncc(-c2ccc(C(F)(F)F)cc2)c(-c2c[nH]c3ccc(Br)cc23)n1,< 5.00,2,< 5.00,< 5.00,< 5.00,< 5.00,–,< 5.00,< 5.00,< 5.00,< 5.00,–,< 5.00
Nc1ncc(I)c(-c2c[nH]c3c(N)cccc23)n1,6.96,4.4,7.59,4.92,5.60,4.85,4.97,6.18,5.96,5.40,4.70,5.21,5.05
CC(=O)Nc1ccc(-c2cnc(N)nc2-c2c[nH]c3c(Br)cccc23)cc1,6.72,2.2,7.06,< 4.60,5.52,5.30,5.10,5.12,< 5.00,4.60,< 4.60,4.89,4.60
Nc1ncc(I)c(-c2c[nH]c3cccc(N)c23)n1,5.55,> 10,6.00,< 5.00,4.74,< 4.30,< 4.30,< 5.00,< 5.00,< 5.00,< 5.00,< 4.30,< 5.00
Nc1ccc2c(-c3nc(N)ncc3I)c[nH]c2c1,6.66,4.2,7.10,< 5.00,4.89,4.33,4.44,5.21,6.29,< 5.00,< 5.00,4.59,< 5.00
CC(=O)Nc1ccc(-c2cnc(N)nc2-c2c[nH]c3cccc(Br)c23)cc1,< 5.00,> 10,< 5.00,< 5.00,< 5.00,< 5.00,–,< 5.00,< 5.00,< 5.00,< 5.00,–,< 5.00
Nc1nccc(-c2c[nH]c3ccc(Br)cc23)n1 [MERIDIANIN C],6.48,1.3,6.66,5.03,–,–,–,5.92,5.14,< 4.60,4.62,–,< 4.60
CC(=O)Nc1ccc(-c2cnc(N)nc2-c2c[nH]c3ccc(Br)cc23)cc1,5.38,0.4,6.12,< 5.00,< 5.00,< 5.00,–,5.17,5.68,< 5.00,< 5.00,–,< 5.00
